What was measured:
[1] = tested on: corn seeds (Monsanto, DKC 63-33); assay: Metro-Mix 830 system (growth chamber): corn seedling dry weight after seed treatment with Bacillus amyloliquefaciens and Myc factor; assay type: in vivo
Protocol: A study was performed to determine the effect of Bacillus amyloliquefaciens, LCOs, or combinations of Bacillus amyloliquefaciens and LCOs on corn growth. Corn seeds were treated with Bacillus amyloliquefaciens strain SB3281 bacteria alone, or in combination with an LCO IV (C16:0, S) Myc factor (FIG. 1B). In this study, corn seeds treated with Bacillus amyloliquefaciens alone or Myc factor alone were compared to non-treated control corn seeds. In addition, corn seeds treated with Bacillus amyloliquefaciens and Myc factor were included in the study. Seeds treated as above were tested in a system designed to test various parameters of early emergence of treated seeds. In this system, the treated seeds were planted in Metro-Mix® 830 (Sun Gro Horticulture; […], Mass., U.S.) and grown in a growth chamber (25° C., 60% relative humidity, 18/6 hour light/dark cycle). Germination trays (12 rows of 6 wells) were filled with moist Metro-Mix® 830. Treated seeds were sown into the wells (30 wells per seed treatment) and grown in the growth chamber for 8 days. The seedlings were harvested, and dry weights of roots/shoots from the seedlings were obtained. To measure the dry weight, the soil was removed from the roots, and dry weights of the roots/shoots and biomass per seedling were determined as described in Example 1. To obtain the Bacillus amyloliquefaciens bacterium for the study, strain SB3281 (ATCC PTA-7542) was grown as described in Example 1. Samples of the bacteria were taken from the culture at 24 hrs (T1). The number of bacteria in the cultures at the various time points was determined by plating serial dilutions from the cultures on SMA plates and the colonies that formed were counted and multiplied by the dilution factor. The number of spores in the cultures were determined by heating aliquots from the cultures at 80° C. in a water bath for 10 minutes to kill vegetative cells. Serial dilutions were plated as above and colony counts multiplied by the dilution factor. Corn seeds were treated by applying a total of 500 μl of treatment substances (e.g., bacteria, LCO, etc.) to 50 g of corn seeds (Monsanto, DKC 63-33). The seeds were allowed to dry at room temperature in bags for 3-4 hours before used in the Metro-Mix® experiments. Control seeds were treated with 500 μl of water. Another group of seeds was treated with 500 μl of a Bacillus amyloliquefaciens culture. A third group of seeds was treated with 500 μl of a 10^-9 M solution of Myc factor. A fourth group of seeds was treated with 250 μl of the Bacillus amyloliquefaciens culture and 250 μl of a 10^-9 M solution of Myc factor.

[2] = tested on: corn seeds (Monsanto, DKC 63-33); assay: Moist chamber system: corn seedling dry weight after seed treatment with Bacillus amyloliquefaciens and Nod factor; assay type: in vivo
Protocol: A study was performed to determine the effect of seed treatment of Bacillus amyloliquefaciens, a Nod factor, or a combination of Bacillus amyloliquefaciens and a Nod factor on corn growth. Corn seeds were treated with Bacillus amyloliquefaciens strain SB3281 bacteria alone, an LCO V (C18:1) Nod factor (FIG. 1A) alone, or a combination of the bacterial strain and Nod factor. Seeds treated as above were tested in a system designed to test various parameters of early seed germination. In this system, the seeds were placed on moist germination paper, in petri dishes, in a representative mock moist chamber experiment (for each seed treatment, 3 petri dishes, each with 5 seeds per dish, were used; 10 ml of deionized water was added to the germination paper per dish). The seeds were allowed to grow in the petri dishes at room temperature for approximately 2 weeks. After that time, various parameters of the seedlings were measured. The lengths of roots/shoots were measured in some experiments. In some experiments, the dry weights of the roots/shoots were determined after dissecting roots from shoots, drying the roots/shoots (placed in a coin envelope) in a 70° C. oven for 2 days, and weighing the roots/shoots. The individual biomass per seedling was determined from these measurements in order to find the average biomass per treatment. To obtain the Bacillus amyloliquefaciens bacterium for the study, strain SB3281 (ATCC PTA-7542) was maintained on Standard Methods Agar (“SMA”; Smith River Biologicals; Ferrum, Va., U.S.). Single colonies were selected from SMA and used to inoculate 5 ml of LB medium. Twenty-four hour old LB cultures were used to inoculate a 250 ml flask containing 100 ml of Si medium (per liter contained 9.4 g of yeast extract, 9.4 g of corn syrup solids, 0.5 g of magnesium chloride hexahydrate, 0.2 g of manganese (II) chloride tetrahydrate, 0.2 g of calcium chloride dehydrate, and 0.27 g of sodium hydroxide, pH 7.0). The flask was incubated at 30° C. on a shaker at 165 rpm. Samples of the bacteria were taken from the culture at 7 days (T7). The number of bacteria in the cultures at the various time points was determined by plating serial dilutions from the cultures on SMA plates and the colonies that formed were counted and multiplied by the dilution factor. The number of spores in the cultures were determined by heating aliquots from the cultures at 80° C. in a water bath for 10 minutes to kill vegetative cells. Serial dilutions were plated as above and colony counts multiplied by the dilution factor. Generally, the cultures contained 10^9 bacteria or spores per ml. Corn seeds were treated by applying a total of 500 μl of treatment substances (e.g., bacteria, LCO, etc.) to 50 g of corn seeds (Monsanto, DKC 63-33). The seeds were allowed to dry at room temperature in bags for 3-4 hours before used in the moist chamber experiments. For treatment of seeds with a single substance (e.g., bacteria alone, LCO alone), 500 μl of the bacterial culture was used, or 500 μl of a LCO solution that contained 6 μl of a 10^−8 M LCO stock solution in 100 ml of buffer was used. For treatment of seeds with two substances (e.g., bacteria and an LCO), 250 μl of the bacterial culture and 250 μl of the 6×10^−13 M LCO stock solution was used. Negative control corn seeds were treated with 500 μl of water. […]

Molecule | Average individual seedling dry weight ([1]; Metro-Mix 830, growth chamber 25° C., 8 days, culture grown 1 day (T1), single: 500 μl culture or 500 μl 10^−9 M Myc factor, combination: 250 μl + 250 μl, per 50 g seeds) [g] | Decrease in seedling dry weight versus control ([1]; difference to control 0.1985 g, Metro-Mix 830) [g] | Change in seedling dry weight over control (about %) ([1]; rounded, Metro-Mix 830) | Effect on corn plant growth (in words) ([1]; seedling dry weight, Metro-Mix 830) | Percent increase seedling dry weight over control ([1]; vs water-treated control, Metro-Mix 830, 8 days) [%] | Average individual seedling dry weight ([2]; approximately 2 weeks, T7 culture, single: 500 μl culture or 500 μl 6×10^−13 M LCO, combination: 250 μl + 250 μl, per 50 g seeds) [g] | Increase in seedling dry weight over control ([2]; difference to control 0.2190 g) [g] | Increase in seedling dry weight over control (about %) ([2]; rounded) | Effect on corn plant growth (in words) ([2]; seedling dry weight) | Percent increase seedling dry weight over control ([2]; vs water-treated control) [%]
CCCCCCCCCCCCCCCC(=O)N[C@H]1[C@H](O[C@H]2[C@H](O)[C@@H](NC(C)=O)[C@H](O[C@H]3[C@H](O)[C@@H](NC(C)=O)[C@H](O[C@H]4[C@H](O)[C@@H](NC(C)=O)C(O)O[C@@H]4COS(=O)(=O)O)O[C@@H]3CO)O[C@@H]2CO)O[C@H](CO)[C@@H](O)[C@@H]1O (stereo partly shown) [Myc factor, LCO IV (C16:0, S)] | 0.1921 | 0.0064 | about −3.2% | appeared to have a negative effect on corn plant growth | −3.22 | – | – | – | – | –
LCO V (C18:1) [Nod factor] | – | – | – | – | – | 0.2244 | 0.0054 | about 2.5% | increased corn plant growth | 2.47

— US20190133124A1, “BACILLUS AND LIPOCHITOOLIGOSACCHARIDE FOR IMPROVING PLANT GROWTH” (NOVOZYMES BIOAG A/S, priority 2016, published 2019)
